Marks after values point to notes of the source that are not given here.
Assays:
[1] = tested on: PTZ-induced seizures in WT, Fmr-1 KO, Tg2576 and FRAXAD mice; assay: PTZ seizure induction after MPEP pre-treatment; assay type: in vivo, mouse; settings: 30 mg/kg MPEP I.P. 30 min prior to PTZ
Method: To assess the impact of mGluR5 inhibition on seizure phenotypes, Frm-1 KO, Tg2576, and FRAXAD mice were treated with mGluR5 antagonist, MPEP. Tg2576, FRAXAD and littermate controls were treated with 30 mg/kg MPEP (via I.P. injections) 30 min prior to seizure induction with PTZ. The experimental results presented in Table 2 support MPEP's effect as an anti-convulsant in both WT and Fmr-1 KO mice. WT male mice reach a grade 3 seizure, fully developed minimal seizure with clonus of the head muscles and forelimbs, at a rate of 50% in response to 50 mg/kg PTZ, but only 20% achieve a grade 3 seizure with MPEP treatment 30 min prior to PTZ (statistically significant, χ^2 test, p<0.0005). Likewise, there was a reduction from 11% to 0%, 46% to 25%, and 40% to 33% in WT females, Fmr-1 KO males and Fmr-1 KO females, respectively when tested using the seizure induction assay.

[2] = tested on: audiogenic seizures in mice; assay: Audiogenic seizure (AGS) testing; assay type: in vivo, mouse; settings: MPEP 30 mg/kg I.P. 30 min prior to AGS testing
Method: Audiogenic Seizure Testing, Data Analyses and mGluR5 Blockade: All mouse strains were tested at postnatal day 21, the peak of AGS sensitivity. The experimental apparatus consisted of a clear, Plexiglas box (13″L×8″W×7″H) with the sound source located inside the box (LOUD KEY™ jogger's alarm). Mice were weighed and then placed individually into the center of the chamber and exposed to a siren that generated noise at 118 dB for 5 min. Loud, acoustic stimulation causes wild running (WR) behavior within 20-30 sec followed by erratic leaping, clonic convulsions and tonic hind limb extension by 40-50 sec followed by respiratory arrest and death (Chen, et al., 2001, Neuroscience 103, 1043-1050). The animals were scored for the latency time of wild running (WR), AGS and respiratory arrest (death). […] MPEP was a kind gift from FRAXA Research Foundation (Newburyport, Mass.) and was dissolved at 1 mg/mL in DPBS before I.P. injection at 30 mg/kg body weight 30 min prior to AGS testing.
Tg2576 mice over-expressed hAPPSwe and hAβ. FRAXAD were a cross between fmr-1^−/− (Fragile X mouse model) and Tg2576 (AD mouse model) and generated 23% more brain hAβ1-40 than Tg2576 (Westmark et al., 2008, Int J Clin Exp Pathol 1: 157-168). […] It was determined whether hAPPSwe/hAβ over-expression in an fmr-1 null background (FRAXAD mice) increased AGS. C57BL/6 fmr-1^−/− mice were sensitive to AGS from 15-47 days with a peak at 21 days (Yan et al., 2005, Neuropharmacology 49: 1053-1066). AGS in WT, fmr-1^−/−, Tg2576 and FRAXAD mice was examined at 21 days of age. Mice were transferred to a Plexiglas box (13″L×8″W×7″H) shortly after weaning and exposed to high pitch siren (118 dB) from a personal body alarm (LOUD KEY™).
A common denominator between Fragile X Syndrome (FXS), Downs Syndrome (DS), and Alzheimer's Disease (AD) is the over-expression of amyloid precursor protein (APP) and/or beta-amyloid (Aβ). […] Additionally, methods that decreased APP/Aβ levels were expected to reduce AGS. Accordingly, AGS rates were examined in AD, FXS and DS mouse models. AGS rates for FRAXAD, Tg2576, and fmr-1^−/−, Ts65Dn were described above in Example 6. Here, the ability of 2-methyl-6-(phenylethynyl)pyridine hydrochloride (MPEP) to attenuate AGS was assessed. Tg2576 and FRAXAD mice were treated with MPEP for 30 min prior to AGS stimulation to assess the effect of mGluR5 blockade on seizure propensity in AD mouse models.

[3] = tested on: audiogenic seizures in Fmr-1 KO mice; settings: intraperitoneal injections; cited from earlier work

## Cc1cccc(C#Cc2ccccc2)n1 [MPEP, 2-methyl-6-(phenylethynyl)pyridine]
[1]; FMR-1 KO female
  MPEP + PTZ % death: 0%
  MPEP + PTZ % grade 3: 33%
[1]; FMR-1 KO male
  MPEP + PTZ % death: 0%
[1]; FMR-1 KO male, 30 mg/kg
  MPEP + PTZ % grade 3: 25%
[1]; FRAXAD female
  MPEP + PTZ % death: 40* %
  MPEP + PTZ % grade 3: 100%
[1]; FRAXAD male
  MPEP + PTZ % death: 60* %
  MPEP + PTZ % grade 3: 80%
[1]; Tg2576 female
  MPEP + PTZ % death: 50* %
  MPEP + PTZ % grade 3: 75%
[1]; Tg2576 male
  MPEP + PTZ % death: 75%
  MPEP + PTZ % grade 3: 100%
[1]; WT female
  MPEP + PTZ % death: 0%
[1]; WT female, 30 mg/kg
  MPEP + PTZ % grade 3: 0%
[1]; WT male
  MPEP + PTZ % death: 0%
[1]; WT male, 30 mg/kg
  MPEP + PTZ % grade 3: 20%
[2]; FRAXAD mice
  % Death: 7%
  % WR: 60%
[2]; Fmr-1 KO mice
  % Death: 0%
  % WR: 14%
[2]; Tg2576 mice
  % Death: 0%
  % WR: 0%
[2]; WT mice
  % AGS: 0%
  % Death: 0%
  % WR: 0%
[3]
  effect on audiogenic seizures: reduce
